Measurements published in patent US10344025B2, “GLS1 inhibitors for treating disease” (Board of Regents, The University of Texas System, priority 2014, dated 2019).

Experiments:
[1] = molecular target: purified recombinant human GAC (GLS1) (Homo sapiens (Human), UniProt O94925); test: GLS1 Enzymatic Activity Assay (dual-coupled enzymatic assay, resorufin/Amplex UltraRed readout); assay type: biochemical;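 note: glutamate from GAC coupled via glutamate oxidase and peroxidase to resorufin, read as fluorescence (ex 530, em 590 nm) kinetically or at 20 min, four-parameter logistic IC50 fit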
Sequence of purified recombinant human GAC (GLS1) (O94925 other isoform, or with tags, fused parts or gaps): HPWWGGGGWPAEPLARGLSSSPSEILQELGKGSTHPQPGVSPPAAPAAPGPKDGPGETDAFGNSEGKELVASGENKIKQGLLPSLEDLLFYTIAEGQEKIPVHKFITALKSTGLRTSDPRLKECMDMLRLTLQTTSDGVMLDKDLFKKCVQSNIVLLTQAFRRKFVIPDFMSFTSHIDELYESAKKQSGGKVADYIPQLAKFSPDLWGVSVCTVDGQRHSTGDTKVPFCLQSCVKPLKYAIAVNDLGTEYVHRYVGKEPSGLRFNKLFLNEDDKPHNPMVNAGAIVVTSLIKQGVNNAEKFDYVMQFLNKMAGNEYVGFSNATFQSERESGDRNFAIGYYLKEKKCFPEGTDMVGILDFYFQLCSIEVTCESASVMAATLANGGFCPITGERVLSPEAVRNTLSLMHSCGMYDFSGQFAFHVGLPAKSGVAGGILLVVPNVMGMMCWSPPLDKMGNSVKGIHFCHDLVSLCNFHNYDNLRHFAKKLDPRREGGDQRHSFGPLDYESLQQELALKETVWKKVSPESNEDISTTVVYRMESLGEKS

A549 cells = test: Proliferation Assay (A549 viability, Cell Titer Fluor, 72 hours); assay type: cell-based; conditions: Homo sapiens
How it was run: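 Cell Titer Fluor fluorescence after 72 h compound treatment (0.5% DMSO, 37 °C, 5% CO2) of A549 cells plated 24 h earlier at 1000/well. Four-parameter logistic fitting gave IC50.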

Row | SMILES | IC50 [1] [nM] | EC50 (A549 cells; A549, 72 h) [nM] | EC50 (A549 cells) [nM]
1 | Cc1ccc(CC(=O)Nc2cn(CCCCn3cc(C(=O)NCC4CC4)nn3)nn2)cn1 [Example 319, N-(cyclopropylmethyl)-1-(4-{4-[2-(6-methylpyridin-3-yl)acetamido]-1H-1,2,3-triazol-1-yl}butyl)-1H-1,2,3-triazole-4-carboxamide] | 500 to 5000 | > 5000 | 
2 | O=C(Cc1cccnc1)Nc1cn(CCCCn2cc(C(=O)NCc3cccnc3)nn2)nn1 [Example 320, 1-(4-{4-[2-(pyridin-3-yl)acetamido]-1H-1,2,3-triazol-1-yl}butyl)-N-(pyridin-3-ylmethyl)-1H-1,2,3-triazole-4-carboxamide] | 100 to 500 | 500 to 5000 | 
3 | Cc1ccc(CC(=O)Nc2cn(CCCCn3cc(C(=O)NCc4cccnc4)nn3)nn2)cn1 [Example 322, 1-(4-{4-[2-(6-methylpyridin-3-yl)acetamido]-1H-1,2,3-triazol-1-yl}butyl)-N-(pyridin-3-ylmethyl)-1H-1,2,3-triazole-4-carboxamide] | 100 to 500 | 500 to 5000 | 
4 | O=C(CN1CCC(F)(F)C1)Nc1cn(CCCCn2cc(C(=O)NCc3cccc(OC(F)(F)F)c3)nn2)nn1 [Example 331, 1-(4-{4-[2-(3,3-difluoropyrrolidin-1-yl)acetamido]-1H-1,2,3-triazol-1-yl}butyl)-N-{[3-(trifluoromethoxy)phenyl]methyl}-1H-1,2,3-triazole-4-carboxamide] | < 100 | 100 to 500 | 
5 | O=C(CN1CCC(F)(F)CC1)Nc1cn(CCCCn2cc(C(=O)NCc3cccc(OC(F)(F)F)c3)nn2)nn1 [Example 332, 1-(4-(4-(2-(4,4-difluoropiperidin-1-yl)acetamido)-1H-1,2,3-triazol-1-yl)butyl)-N-(3-(trifluoromethoxy)benzyl)-1H-1,2,3-triazole-4-carboxamide] | < 100 |  | 100 to 500

More lines, main results first:

Row | IC50 [1] [nM] | EC50 (A549 cells; A549, 72 h) [nM] | SMILES | EC50 (A549 cells) [nM]
6 | 500 to 5000 | 500 to 5000 | O=C(Cc1ccccn1)Nc1cn(CCCCn2cc(C(=O)NCc3cccnc3)nn2)nn1 [Example 321, 1-(4-{4-[2-(pyridin-2-yl)acetamido]-1H-1,2,3-triazol-1-yl}butyl)-N-(pyridin-3-ylmethyl)-1H-1,2,3-triazole-4-carboxamide] | 
7 | < 100 | < 100 | O=C(Cc1cccc(OC(F)(F)F)c1)Nc1cn(CC(F)CCn2cc(C(=O)NCc3ccccn3)nn2)nn1 (stereo not shown) [Example 327, 1-[3-fluoro-4-(4-{2-[3-(trifluoromethoxy)phenyl]acetamido}-1H-1,2,3-triazol-1-yl)butyl]-N-(pyridin-2-ylmethyl)-1H-1,2,3-triazole-4-carboxamide] | 
8 | < 100 | < 100 | Cc1ccc(CNC(=O)c2cn(CCC(F)Cn3cc(NC(=O)Cc4cccc(OC(F)(F)F)c4)nn3)nn2)cn1 (stereo not shown) [Example 328, 1-[3-fluoro-4-(4-{2-[3-(trifluoromethoxy)phenyl]acetamido}-1H-1,2,3-triazol-1-yl)butyl]-N-[(6-methylpyridin-3-yl)methyl]-1H-1,2,3-triazole-4-carboxamide] | 
9 | 100 to 500 | 500 to 5000 | O=C(CN1CC(F)C1)Nc1cn(CCCCn2cc(C(=O)NCc3cccc(OC(F)(F)F)c3)nn2)nn1 [Example 329, 1-(4-{4-[2-(3-fluoroazetidin-1-yl)acetamido]-1H-1,2,3-triazol-1-yl}butyl)-N-{[3-(trifluoromethoxy)phenyl]methyl}-1H-1,2,3-triazole-4-carboxamide] | 
10 | < 100 | 100 to 500 | O=C(CN1CC(F)(F)C1)Nc1cn(CCCCn2cc(C(=O)NCc3cccc(OC(F)(F)F)c3)nn2)nn1 [Example 330, 1-(4-{4-[2-(3,3-difluoroazetidin-1-yl)acetamido]-1H-1,2,3-triazol-1-yl}butyl)-N-{[3-(trifluoromethoxy)phenyl]methyl}-1H-1,2,3-triazole-4-carboxamide] | 
11 | < 100 | < 100 | O=C(Cc1cccc(OC(F)(F)F)c1)Nc1cn(CCCCn2cc(C(=O)NCc3cc(Cl)ccc3F)nn2)nn1 [Example 334, N-[(5-chloro-2-fluorophenyl)methyl]-1-[4-(4-{2-[3-(trifluoromethoxy)phenyl]acetamido}-1H-1,2,3-triazol-1-yl)butyl]-1H-1,2,3-triazole-4-carboxamide] | 
